From US20230373940A1, “CARBOXYLIC DIARYLTHIAZEPINEAMINES AND USES THEREOF” (Kures, Inc., priority 2020, published 2023)
Structures can show the parent of a compound that is named as a salt.

How the values were obtained:
MOR = MOR (Homo sapiens, UniProt P35372); details: Gassaway, M. M. et al. 2014; cited from earlier work
DOR = DOR (Homo sapiens, UniProt P41143); details: Gassaway, M. M. et al. 2014; cited from earlier work
[1] = molecular target: T1, human mu opioid receptor (MOR) (Homo sapiens, UniProt P35372); experiment: BRET assay measuring G protein activation, agonist activity at human MOR (transfected HEK-293T cells); type: cell-based; details: for MOR potency relative to analogs lacking substitution at position 2: dihalo-substituted core
T1 construct: expressed in transfected cells; host or cells: HEK-293T
T1 sequence (P35372 whole entry): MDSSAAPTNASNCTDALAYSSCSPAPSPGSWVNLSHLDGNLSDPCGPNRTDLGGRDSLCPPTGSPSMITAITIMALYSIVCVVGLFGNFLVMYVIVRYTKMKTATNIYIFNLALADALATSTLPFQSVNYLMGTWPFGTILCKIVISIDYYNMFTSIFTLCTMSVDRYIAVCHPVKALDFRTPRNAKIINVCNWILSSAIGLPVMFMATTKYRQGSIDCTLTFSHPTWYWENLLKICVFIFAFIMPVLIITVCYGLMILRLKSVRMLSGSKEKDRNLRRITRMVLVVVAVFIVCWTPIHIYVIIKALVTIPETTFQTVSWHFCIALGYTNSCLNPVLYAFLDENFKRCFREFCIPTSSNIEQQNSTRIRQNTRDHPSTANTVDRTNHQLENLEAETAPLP
Experimental: (§1) The diarylthiazepinamine carboxylic acids (9) were tested for agonist activity at the human mu opioid receptor (MOR) and delta opioid receptor (DOR) using bioluminescence resonance energy transfer (BRET) assays measuring G protein activation as previously described (Table 1) (Rives, M.-L. et al. 2012; Negri, A. et al. 2013).
(§2) Transfection. Human MOR cDNA was transfected alongside […] with RLuc8 inserted at position 91 (GαoB-RLuc8), Gβ1 (β1), and Gγ2 fused to the full-length mVenus at its N terminus (mVenus-γ2) into HEK-293T cells (5×10^6 cells/plate) in 10-cm dishes using PEI (Polysciences Inc.; Warrington, PA) in a 1:1 ratio diluted in Opti-MEM (Life Technologies Corp.; Grand Island, NY) to assay for G protein activation as described previously (Rives, M.-L. et al. 2012; Negri, A. et al. 2013). Cells were maintained in Dulbecco's Modified Eagle Medium (high glucose #11965; Life Technologies) supplemented with 10% FBS (Premium Select, Atlanta Biologicals; Atlanta, GA) and 100 U/mL penicillin and 100 μg/mL streptomycin (#15140, Life Technologies). After 24 hours the media was changed, and the experiment was performed 24 hours later (48 hours after transfection).
(§3) BRET. Transfected cells were dissociated and re-suspended in phosphate-buffered saline (PBS). Approximately 200,000 cells/well were added to a black-framed, white well 96-well plate (#60050; Perkin Elmer; Waltham, MA). The microplate was centrifuged and the cells were re-suspended in PBS. Then 5 μM of the luciferase substrate coelenterazine H was added to each well for 5 minutes. Following coelenterazine H addition, ligands were added and the BRET signal was measured at 5 minutes on a PHERAstar FS plate reader. Quantification of the BRET signal required calculating the ratio of the light emitted by the energy acceptor, mVenus (510-540 nm), over the light emitted by the energy donor, RLuc8 (485 nm). […] Dose response curves were fit using a three-parameter logistics equation in GraphPad Prism 6.
The additional diarylthiazepinamine carboxylic acids (9i, 9j, 9k, and 91) were tested for agonist activity at the human mu opioid receptor (MOR) using bioluminescence resonance energy transfer (BRET) assays measuring G protein activation (Table 2) as previously described (Rives, M.-L. et al. 2012; Negri, A. et al. 2013; Example 2 of the present application).

[2] = Solubility Determination (Method A), distilled water, stirred 24 h; type: physicochemical
Experimental: (§4) Solubility Determination (Method A). A quantity of the appropriate compound sufficient to saturate the resulting solution was added to distilled water (0.50 mL) and the mixture was stirred vigorously for 24 h at room temperature (20° C.). The mixture was then centrifuged for 3 min. at 21,000×g and the stir bar was carefully removed. The mixture was then centrifuged again for 5 min. at 21,000×g and the supernatant was carefully removed by syringe and passed through a […] syringe filter. An aliquot (300 μL) of the filtered supernatant was concentrated in vacuo and the mass of the residual solids determined in order to calculate the solubility.

[3] = for Solubility, 100 mM HCl, pH 1 (mg/mL): pH 1, 25° C.
Experimental: Solubility Determination. Test compounds (4 mg) were added to 200 μL of one of the tested aqueous solutions (hereinafter—buffer): 100 mM aqueous HCl (pH 1) or 100 mM Na-phosphate buffer (pH 7). The obtained suspensions/solutions with the theoretical concentration of 20 mg/mL were further allowed to equilibrate at 25° C. on a thermostatic orbital shaker for 24 hours and then centrifuged at 6000 rpm for 4 minutes and filtered through HTS filter plates using a vacuum manifold. In parallel, compound dilutions in 50% acetonitrile/HCl and 30% acetonitrile/Na-phosphate buffer mixes were prepared to theoretical concentrations of 0 mg/mL (blank), 0.1 mg/mL, 0.2 mg/mL, and 0.4 mg/mL in duplicates to generate calibration curves falling within the optimum UV absorption range. The filtrates of test compounds were diluted 100-fold with acetonitrile-buffer mixtures before measuring. The filtered supernatant test samples were transferred to 96-well plates and measured for absorbance in the 200-550 nm range with 5 nm step increment. The concentrations of compounds in supernatants were calculated using the measured absorbance and the previously determined calibration curve. Proper absorbance wavelengths for calculations were selected for each compound manually based on absorbance maxima (absolute absorbance unit values for the minimum and maximum concentration points within 0-2.5 OD range).

male C57BL/6 mice = experiment: Analgesic activity in hot plate assay; type: in vivo, mouse; details: for ED50: Mus musculus, sc, hot plate 55° C., male C57BL/6 mice; for Analgesic activity in the mouse hot plate assay: much higher potency than tianeptine
Experimental: Analgesic Activity in Hot Plate Assay. Male C57BL/6 mice were timed for latency to jump on a hot-plate apparatus set to 55° C., using a 30 s cutoff to prevent tissue damage. Following a baseline test, animals were injected subcutaneously (s.c.) with escalating doses of drug and tested at […] (time of maximal effect). Dose-response curves were fit via nonlinear regression using GraphPad Prism (La Jolla, CA).

[4] = molecular target: T2, human delta opioid receptor (DOR) (Homo sapiens, UniProt P41143); experiment: BRET assay measuring G protein activation, agonist activity at human DOR; type: cell-based
T2 construct: expressed in transfected cells
T2 sequence (P41143 whole entry): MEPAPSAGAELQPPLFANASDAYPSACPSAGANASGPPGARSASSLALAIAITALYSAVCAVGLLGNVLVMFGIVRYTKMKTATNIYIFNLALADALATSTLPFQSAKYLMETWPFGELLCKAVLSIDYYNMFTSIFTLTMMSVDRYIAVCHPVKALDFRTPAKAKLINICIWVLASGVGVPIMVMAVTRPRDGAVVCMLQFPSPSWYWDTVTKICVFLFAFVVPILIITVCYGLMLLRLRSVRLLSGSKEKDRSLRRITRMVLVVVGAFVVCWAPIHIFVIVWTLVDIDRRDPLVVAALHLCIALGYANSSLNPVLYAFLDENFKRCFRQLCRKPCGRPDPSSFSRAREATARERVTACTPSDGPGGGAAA
Experimental: as §1, §2, §3

[5] = Solubility Determination (Method B), distilled water, orbital shaker 2 h; type: physicochemical; details: neutral unbuffered water, vs iodotianeptine
Experimental: as §4, with “B).” for “A).”, “agitated on an orbital shaker” for “was stirred vigorously”, “2” for “24”, “centrifuged” for “centrifuged for 3 min. at 21,000×g and the stir bar was carefully removed. The mixture was then centrifuged again”

[6] = average of 2 independent trials

Sequence of DOR (P41143 whole entry): as above
Sequence of MOR (P35372 whole entry): as the sequence (P35372 whole entry) above

In the case of `CN1c2ccccc2C(NCCCCCCC(=O)O)c2ccc(Cl)cc2S1(=O)=O` (stereo not drawn) [Tianeptine, tianeptine], the “Agonist activity at the MOR (reported)” value (MOR) is listed as “full agonist” and the “Agonist activity at the DOR (reported)” value (DOR) is listed as “low potency agonist activity”.
With `CN1c2ccccc2C(NCCCCCCC(=O)O)c2cc(F)c(Br)cc2S1(=O)=O.Cl` (stereo not drawn) [Compound 9b, 7-((3-Bromo-2-fluoro-6-methyl-5,5-dioxido-6,11-dihydrodibenzo[c,f][1,2]thiazopin-11-yl)amino) heptanoic acid hydrochloride salt] the “MOR potency relative to analogs lacking substitution at position 2” value [1] was “equipotent or more potent”, the “Fold more soluble than analogous monohalo counterpart” value ([2]; neutral unbuffered water, vs bromotianeptine) was 2-3 fold and the “Aqueous Solubility (mg/mL @ 20° C.)” value ([2]; neutral water, room temperature (20° C.), Method A, average of 2 independent trials) was 9.8 mg/mL. For the same compound, the “Solubility, 100 mM HCl, pH 1 (mg/mL)” value [3, 6] was 1.1 mg/mL, the “Solubility, 100 mM Na phosphate buffer, pH 7 (mg/mL)” value ([3]; pH 7, 25° C., average of 2 independent trials) was 0.84 mg/mL and the ED50 (male C57BL/6 mice) was 5.1 mg/kg. The “Analgesic activity in the mouse hot plate assay” value (male C57BL/6 mice) was “potent analgesics”.
Work on `CN1c2ccccc2C(NCCCCCCC(=O)[O-])c2ccc(Cl)cc2S1(=O)=O.[Na+]` (stereo not drawn) [Tianeptine (Na salt), Tianeptine, reference compound] yielded an ED50 (male C57BL/6 mice) of 15 mg/kg.
With `CN1c2ccccc2C(NCCCCCCC(=O)O)c2cc(F)c(Cl)cc2S1(=O)=O.Cl` (stereo not drawn) [Compound 9j, 7-((3-chloro-2-fluoro-6-methyl-5,5-dioxido-6,11-dihydrodibenzo[c,f][1,2]thiazopin-11-yl)amino) heptanoic acid hydrochloride salt] the “MOR potency relative to analogs lacking substitution at position 2” value [1] was “equipotent or more potent” and the “Fold more soluble than monohalo counterpart at pH 1” value ([3]; pH 1) was 8 fold.
In the case of `CN1c2ccccc2C(NCCCCC(=O)O)c2cc(F)c(Br)cc2S1(=O)=O.Cl` (stereo not drawn) [Compound 91, 5-((3-bromo-2-fluoro-6-methyl-5,5-dioxido-6,11-dihydrodibenzo[c,f][1,2]thiazepin-11-yl)amino) pentanoic acid hydrochloride salt], the “MOR potency relative to analogs lacking substitution at position 2” value [1] is reported as “equipotent or more potent”.
In the case of `CN1c2ccccc2C(NCCCCCCC(=O)O)c2ccc(Br)cc2S1(=O)=O.Cl` (stereo not drawn) [bromotianeptine, reference compound], the “Solubility, 100 mM HCl, pH 1 (mg/mL)” value [3, 6] is reported as less than 0.1 mg/mL.
Work on `CN1c2ccccc2C(NCCCCCCCC(=O)O)c2ccc(I)cc2S1(=O)=O` (racemic) [Compound 9e, 8-((3-Iodo-6-methyl-5,5-dioxido-6,11-dihydrodibenzo[c,f][1,2]thiazopin-11-yl)amino) octanoic acid hydrochloride salt] yielded an EC50 [1] of 24.2 ± 11 nM and an EC50 [4] of 724 ± 99 nM.
With `CN1c2ccccc2C(NCCCCCCC(=O)O)c2ccc(I)cc2S1(=O)=O.Cl` (stereo not drawn) [iodotianeptine, reference compound] the “Solubility, 100 mM HCl, pH 1 (mg/mL)” value [3, 6] was less than 0.1 mg/mL.
With `CN1c2ccccc2C(NCCCCCCC(=O)O)c2cc(Cl)c(Cl)cc2S1(=O)=O.Cl` (stereo not drawn) [Compound 9i, 7-((2,3-dichloro-6-methyl-5,5-dioxido-6,11-dihydrodibenzo[c,f][1,2]thiazopin-11-yl)amino) heptanoic acid hydrochloride salt] the “MOR potency relative to analogs lacking substitution at position 2” value [1] was “equipotent or more potent”.
Work on `CN1c2ccccc2C(NCCCCCCCCCC(=O)O)c2ccc(I)cc2S1(=O)=O` (racemic) [Compound 9g, 10-((3-Iodo-6-methyl-5,5-dioxido-6,11-dihydrodibenzo[c,f][1,2]thiazopin-11-yl)amino)decanoic acid hydrochloride salt] yielded an EC50 [1] of 26.6 ± 1.8 nM and an EC50 [4] of 262 ± 25 nM.
With `CN1c2ccccc2C(NCCCCCCC(=O)O)c2cc(F)c(I)cc2S1(=O)=O.Cl` (stereo not drawn) [Compound 9k, 7-((2-fluoro-3-iodo-6-methyl-5,5-dioxido-6,11-dihydrodibenzo[c,f][1,2]thiazopin-11-yl)amino)heptanoic acid hydrochloride salt] the “MOR potency relative to analogs lacking substitution at position 2” value [1] was “equipotent or more potent”, the “Fold more soluble than analogous monohalo counterpart” value [5] was 2-3 fold and the ED50 (male C57BL/6 mice) was 1.7 mg/kg. For the same compound, the “Analgesic activity in the mouse hot plate assay” value (male C57BL/6 mice) was “potent analgesics”.
With `CSc1ccc2c(c1)S(=O)(=O)N(C)c1ccccc1C2NCCCCCCC(=O)O` (stereo not drawn) [Compound 9c, 7-((6-Methyl-3-(methylthio)-5,5-dioxido-6,11-dihydrodibenzo[c,f][1,2]thiazopin-11-yl)amino)heptanoic acid] the “Human DOR agonist type (partial / full agonist)” value [4] was “partial agonist” and the “DOR Emax relative to the control agonist DPDPE” value ([4]; FIG. 1) was “lesser Emax than the control agonist DPDPE”.
In the case of `CCOC(=O)CCCCCCNC1c2ccccc2N(C)S(=O)(=O)c2cc(SC)ccc21` (stereo not drawn) [Ester Analog of 9c, Ethyl 7-((6-methyl-3-(methylthio)-5,5-dioxido-6,11-dihydrodibenzo[c,f][1,2]thiazepin-11-yl)amino)heptanoate], the “Human DOR agonist type (partial / full agonist)” value [4] is reported as “partial agonist”.
